Patent publication US11919965B2, “Methods of treating multiple myeloma with bispecific anti-BCMA x anti-CD3 antibodies” (Regeneron Pharmaceuticals, Inc., priority 2019, dated 2024)

Assays:
[1] = test system: BCMA+ OPM-2-luciferase tumors; assay: Xenogenic tumor model, i.v. OPM-2-luciferase in PBMC-engrafted NSG mice, bioluminescence (Example 15); assay type: in vivo, mouse; settings: 0.4 mg/kg
Procedure: (§1) To determine the in vivo efficacy of anti-BCMA×anti-CD3 bispecific antibodies (Abs), a xenogenic tumor study was performed. On day 0, immunodeficient NOD.Cg-Prkdc^scidII2rg^tm1Wjl/SzJ (NSG) mice were intravenously administered 2×10^6 BCMA^+ OPM-2 human multiple myeloma tumor cells that were engineered to also express firefly luciferase (OPM-2-luciferase cells). On day 10, the mice were intraperitoneally injected with 4×10^6 human peripheral blood mononuclear cells (PBMC) from a normal, healthy donor. […] The mice were administered these Abs twice more on days 25 and 28, for a total of three doses. Tumor growth was assessed through day 61 by measuring tumor bioluminescence (BLI) in anesthetized animals. As a positive control, a group of mice (n=5) was given only OPM-2-luciferase cells, but not PBMC or antibody.
as §1, with “Implantation and measurement” for “To determine the in vivo efficacy”, “of” for “of anti-BCMA×anti-CD3 bispecific antibodies (Abs), a”, “tumors:” for “tumor study was performed.”, “NOD.Cg-Prkdc^scidII2rg^tm1Wkl/SzJ” for “NOD.Cg-Prkdc^scidII2rg^tm1Wjl/SzJ”
Measurement of xenogenic tumor growth: BLI imaging was used to measure tumor burden. Mice were injected IP with 150 mg/kg of the luciferase substrate D-luciferin suspended in PBS. Five minutes after this injection, BLI imaging of the mice was performed under isoflurane anesthesia using the Xenogen IVIS system. Image acquisition was carried out with the field of view at D, subject height of 1.5 cm, and medium binning level with automatic exposure time determined by the Living Image Software. BLI signals were extracted using Living Image software: regions of interest were drawn around each tumor mass and photon intensities were recorded as p/s/cm2/sr.

[2] = test system: established BCMA-expressing NCI-H929 multiple myeloma tumors; assay: Xenogenic tumor model, established NCI-H929 tumors + human PBMC in NSG mice, treatment from day 5 (Example 12); assay type: in vivo, mouse; settings: for Average Tumor Size (mm3) ± SEM on Day 5: day of first dose
Procedure: To determine the in vivo efficacy of anti-BCMA×anti-CD3 bispecific antibodies (Abs), a xenogenic tumor study was performed. Immunodeficient NOD.Cg-Prkdc^scidII2rg^tm1Wjl/SzJ (NSG) mice were subcutaneously implanted with a mixture of 10×10^6 BCMA-expressing NCI-H929 human multiple myeloma tumor cells and 0.5×10^6 human peripheral blood mononuclear cells (PBMC) isolated from a normal, healthy donor. The tumors were allowed to grow and establish for 5 days until they were approximately 70 mm^3 in size. […] The mice were administered these Abs twice per week for a total of seven doses, and tumor growth was assessed over 55 days.
Implantation and measurement of xenogenic tumors: NSG mice were subcutaneously implanted with a mixture of 10×10^6 BCMA-expressing NCI-H929 multiple myeloma cells and 0.5×10^6 PBMC derived from a normal, healthy donor. The tumors were allowed to grow and establish for 5 days until they were approximately 70 mm^3 in size. […] The mice were administered Abs twice per week for a total of seven doses. Tumor growth was measured with calipers twice per week for the duration of the experiment.
Calculation of xenogenic tumor growth and inhibition: In order to determine tumor volume by external caliper, the greatest longitudinal diameter (length in mm) and the greatest transverse diameter (width in mm) were determined. Tumor volumes based on caliper measurements were calculated by the formula: Volume (mm^3)=(length× width^2)/2.

REGN5459: anti-BCMA×anti-CD3 bispecific antibody: mAb21581 BCMA heavy chain, mAb7221G20 CD3 heavy chain and common light chain; SEQ ID NOs 126, 128, 129
Radiance [p/s/cm2^2/sr] 26 days post-implantation (mean ± SEM) [1]: 1.28E+06 ± 7.36E+05 p/s/cm2^2/sr
Radiance [p/s/cm2^2/sr] 31 days post-implantation (mean ± SEM) [1]: 1.98E+06 ± 1.36E+06 p/s/cm2^2/sr
Radiance [p/s/cm2^2/sr] 34 days post-implantation (mean ± SEM) [1]: 4.24E+06 ± 3.69E+06 p/s/cm2^2/sr
Radiance [p/s/cm2^2/sr] 38 days post-implantation (mean ± SEM) [1]: 3.21E+06 ± 2.52E+06 p/s/cm2^2/sr
Radiance [p/s/cm2^2/sr] 40 days post-implantation (mean ± SEM) [1]: 3.84E+06 ± 3.34E+06 p/s/cm2^2/sr
Radiance [p/s/cm2^2/sr] 47 days post-implantation (mean ± SEM) [1]: 7.34E+05 ± 2.62E+04 p/s/cm2^2/sr
Radiance [p/s/cm2^2/sr] 54 days post-implantation (mean ± SEM) [1]: 6.41E+05 ± 5.96E+04 p/s/cm2^2/sr
Radiance [p/s/cm2^2/sr] 61 days post-implantation (mean ± SEM) [1]: 6.03E+05 ± 5.29E+04 p/s/cm2^2/sr
tumor burden ([1]; three doses): reduced tumor burdens to background levels in the majority of animals
Radiance [p/s/cm2^2/sr] 5 days post-implantation (mean ± SEM) ([1]; before first dose (day 21)): 5.09E+05 ± 3.56E+04 p/s/cm2^2/sr
Radiance [p/s/cm2^2/sr] 11 days post-implantation (mean ± SEM) ([1]; before first dose (day 21)): 6.45E+05 ± 2.39E+04 p/s/cm2^2/sr
Radiance [p/s/cm2^2/sr] 20 days post-implantation (mean ± SEM) ([1]; before first dose (day 21)): 2.13E+06 ± 1.69E+05 p/s/cm2^2/sr
Average Tumor Size (mm3) ± SEM on Day 8 ([2]; 0.04 mg/kg): 152.3 ± 20.0 mm3
Average Tumor Size (mm3) ± SEM on Day 12 ([2]; 0.04 mg/kg): 462.5 ± 57.7 mm3
Average Tumor Size (mm3) ± SEM on Day 15 ([2]; 0.04 mg/kg): 1094.2 ± 78.9 mm3
Average Tumor Size (mm3) ± SEM on Day 19 ([2]; 0.04 mg/kg): 2412.5 ± 184.6 mm3
Average Tumor Size (mm3) ± SEM on Day 22 ([2]; 0.04 mg/kg): 3285.9 ± 227.3 mm3
Average Tumor Size (mm3) ± SEM on Day 5 ([2]; 0.04 mg/kg): 74.9 ± 6.4 mm3
Average Tumor Size (mm3) ± SEM on Day 8 ([2]; 0.4 mg/kg): 171.9 ± 23.2 mm3
Average Tumor Size (mm3) ± SEM on Day 12 ([2]; 0.4 mg/kg): 233.8 ± 63.5 mm3
Average Tumor Size (mm3) ± SEM on Day 15 ([2]; 0.4 mg/kg): 327.2 ± 135.6 mm3
Average Tumor Size (mm3) ± SEM on Day 19 ([2]; 0.4 mg/kg): 606.2 ± 288.8 mm3
Average Tumor Size (mm3) ± SEM on Day 22 ([2]; 0.4 mg/kg): 815.4 ± 387.1 mm3
Average Tumor Size (mm3) ± SEM on Day 27 ([2]; 0.4 mg/kg): 1849.9 ± 903.1 mm3
Average Tumor Size (mm3) ± SEM on Day 30 ([2]; 0.4 mg/kg): 661.8 ± 490.1 mm3
Average Tumor Size (mm3) ± SEM on Day 35 ([2]; 0.4 mg/kg): 996.8 ± 771.0 mm3
Average Tumor Size (mm3) ± SEM on Day 40 ([2]; 0.4 mg/kg): 375.6 ± 375.6 mm3
Average Tumor Size (mm3) ± SEM on Day 55 ([2]; 0.4 mg/kg): 0 ± 0 mm3
Average Tumor Size (mm3) ± SEM on Day 5 ([2]; 0.4 mg/kg): 69.5 ± 4.1 mm3
Average Tumor Size (mm3) ± SEM on Day 8 ([2]; 4 mg/kg): 45.8 ± 9.8 mm3
Average Tumor Size (mm3) ± SEM on Day 15 ([2]; 4 mg/kg): 0 ± 0 mm3
Average Tumor Size (mm3) ± SEM on Day 19 ([2]; 4 mg/kg): 0 ± 0 mm3
Average Tumor Size (mm3) ± SEM on Day 22 ([2]; 4 mg/kg): 0 ± 0 mm3
Average Tumor Size (mm3) ± SEM on Day 27 ([2]; 4 mg/kg): 0 ± 0 mm3
Average Tumor Size (mm3) ± SEM on Day 30 ([2]; 4 mg/kg): 0 ± 0 mm3
Average Tumor Size (mm3) ± SEM on Day 35 ([2]; 4 mg/kg): 0 ± 0 mm3
Average Tumor Size (mm3) ± SEM on Day 40 ([2]; 4 mg/kg): 0 ± 0 mm3
Average Tumor Size (mm3) ± SEM on Day 55 ([2]; 4 mg/kg): 0 ± 0 mm3
Average Tumor Size (mm3) ± SEM on Day 5 ([2]; 4 mg/kg): 61.8 ± 5.2 mm3
